The results in this text go back to patent US7795255B2, “Rigidified compounds for modulating heparanase activity” (InSight Biopharmaceuticals Ltd., priority 2005, dated 2010).

The target of assay [1] is T1, heparanase (H53) (Homo sapiens, UniProt Q9Y251).
T1 construct: The 45 kDa major subunit and the 8 kDa small subunit hetero-complex to form the 53 kDa active form of heparanase
T1 sequence (Q9Y251 36-109 limits assumed): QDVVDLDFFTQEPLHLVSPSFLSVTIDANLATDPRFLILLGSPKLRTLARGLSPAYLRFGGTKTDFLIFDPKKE
T1 sequence (Q9Y251 158-543 limits assumed): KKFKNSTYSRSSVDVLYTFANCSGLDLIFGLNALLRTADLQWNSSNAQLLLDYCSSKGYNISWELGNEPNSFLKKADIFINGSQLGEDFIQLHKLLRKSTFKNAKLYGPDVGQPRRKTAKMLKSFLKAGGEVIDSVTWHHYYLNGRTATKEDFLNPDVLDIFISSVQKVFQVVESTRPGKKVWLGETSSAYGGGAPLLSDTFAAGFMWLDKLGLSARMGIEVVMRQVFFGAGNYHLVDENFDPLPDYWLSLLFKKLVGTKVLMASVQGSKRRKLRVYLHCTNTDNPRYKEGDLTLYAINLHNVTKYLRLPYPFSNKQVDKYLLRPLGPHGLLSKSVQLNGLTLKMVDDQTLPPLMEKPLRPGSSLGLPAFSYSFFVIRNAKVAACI
In words: Heparanase (H53) assay (DMB assay). It is filed as biochemical. Particulars: for dual activity: inhibition of pro-heparanase activation (H60) and of heparanase activity (H53): compounds with an acidic group; for IC50: inhibition of heparanase activity, DMB assay, NI = no inhibition. As to the method: Heparanase (H53) assay: The rigidified compounds described herein were tested for inhibition of heparanase activity in the DMB assay described in U.S. Pat. No. 6,190,875. IC50 was calculated from inhibition curves of all active compounds.

In assay [2] the target is T2, recombinant human pro-heparanase (H60) (Homo sapiens, UniProt Q9Y251).
T2 construct: Heparanase maturation involves the removal of the signal peptide, transforming the 65 kDa pre-pro-heparanase into a 60 kDa pro-heparanase; made in house
T2 sequence (Q9Y251 36-543): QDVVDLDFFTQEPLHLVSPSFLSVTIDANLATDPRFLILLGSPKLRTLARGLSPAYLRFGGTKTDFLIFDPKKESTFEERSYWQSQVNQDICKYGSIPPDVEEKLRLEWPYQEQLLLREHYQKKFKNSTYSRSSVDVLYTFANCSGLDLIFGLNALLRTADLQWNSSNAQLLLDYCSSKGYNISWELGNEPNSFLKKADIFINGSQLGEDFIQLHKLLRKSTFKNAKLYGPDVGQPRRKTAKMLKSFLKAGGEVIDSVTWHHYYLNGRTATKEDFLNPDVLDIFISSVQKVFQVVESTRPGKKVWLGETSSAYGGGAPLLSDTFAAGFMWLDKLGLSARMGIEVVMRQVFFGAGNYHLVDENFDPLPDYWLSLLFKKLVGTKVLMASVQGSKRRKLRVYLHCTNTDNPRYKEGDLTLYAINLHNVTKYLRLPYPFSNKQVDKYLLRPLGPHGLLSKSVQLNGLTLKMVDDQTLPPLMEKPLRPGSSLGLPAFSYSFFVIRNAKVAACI
In words: Pro-heparanase (H60) activation in a cell-based assay. Particulars: inhibition of pro-heparanase activation in CHO cells; NI = no inhibition.

For assay [3], the target named is T3, vascular endothelial growth factor (VEGF) (Homo sapiens, UniProt P15692).
T3 sequence (P15692 27-191 isoform P15692-4): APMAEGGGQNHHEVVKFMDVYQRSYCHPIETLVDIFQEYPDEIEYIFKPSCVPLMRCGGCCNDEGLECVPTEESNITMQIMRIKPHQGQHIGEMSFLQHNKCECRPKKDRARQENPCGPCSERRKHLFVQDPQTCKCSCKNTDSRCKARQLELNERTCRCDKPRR
Kind of assay: ELISA for determination of binding of VEGF to heparin. Particulars: inhibition of VEGF binding to heparin; NI = no inhibition. A digest of the protocol: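 Binding of 10 ng/ml VEGF to plates coated with 5 μg/ml heparin-albumin (45 min, 23-25° C), detected with anti-VEGF antibody (0.26 μg/ml) plus HRP secondary and TMB, read at 450/630 nm. Percent inhibition versus a 1% DMSO pre-incubated control.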
On the technique in general: An ELISA detects its analyte on a solid surface through an enzyme-linked reagent.

In assay [4] the target is β-FGF (Homo sapiens, UniProt P09038). In words: ELISA for determination of binding of β-FGF to heparin. To be noted: inhibition of β-FGF binding to heparin; NI = no inhibition. A digest of the protocol:
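Plates coated 2 h at 23-25° C with 5 μg/ml heparin-albumin, blocked with 1% BSA/PBS/0.05% Tween; 10 ng/ml β-FGF bound 45 min at 23-25° C. Bound β-FGF detected with anti-FGF mAb (2.5 ng/ml) plus HRP anti-mouse IgG and TMB; absorbance at 450 nm, 630 nm reference.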

For assay [5], the system named is MDA-MB231 breast cancer cells. In words: In-vitro assay for inhibition of cell invasion (MDA-MB231). The class given is cell-based. Particulars: Homo sapiens; MB231 cells (first value of cell); read-out: IC50 Invasion MB231/PC3/A375. As to the method: (§1) In-vitro assay for inhibition of cell invasion: The ability of the rigidified compounds described herein to inhibit cell invasion was determined quantitatively using BD Biocoat FluoroBlok Invasion System (BD, cat No. FAL354165). MDA-MB231 breast cancer cells, human prostatic cancer PC3 cells and A375 melanoma cells were used for this assay. Cells (5×10^4 cells/ml) were pre-incubated with the compounds for 48 hours prior to the assay, at 37° C. and a 5% CO2 atmosphere.
(§2) Serial dilutions of each compound starting from a concentration which was previously found to be non-toxic to the cells (using Oxygen Biosensor System, BD), were prepared in DMSO and added to the cells to a final concentration of 1% DMSO. At the end of the pre-incubation, cells at each compound concentration were counted and 2×10^4 cells/well in basic medium were applied onto the top chamber of the insert of the Invasion system. 750 μl complete medium with 5% fetal calf serum was added to the bottom chambers. The tested compound was applied to the top and bottom chambers. Invasion plates were incubated for 22 hours at 37° C. and a 5% CO2 atmosphere.
At the end of the incubation, medium was aspirated from the upper chambers and the inserts were transferred to a plate containing Calcein AM (Molecular Probes), 4 μg/ml and incubated for 90 minutes at 37° C. and a 5% CO2 atmosphere.
(§3) Fluorescence of invaded cells was read in a fluorescence plate reader BMG POLARstar Galaxy, BMG at excitation/emission wavelength of 485/530 nm.

The subject of assay [6] is human prostatic cancer PC3 cells. In words: In-vitro assay for inhibition of cell invasion (PC3). The class given is cell-based. Particulars: PC-3, PC3 cells (second value of cell), read-out: IC50 Invasion MB231/PC3/A375. On the procedure: as §1
as §2, with “atmosphere. […]” for “atmosphere.”
as §3

The test system of assay [7] is A375 melanoma cells. Kind of assay: In-vitro assay for inhibition of cell invasion (A375). Particulars: Homo sapiens, A-375; A375 cells (third value of cell); read-out: IC50 Invasion MB231/PC3/A375. It is filed as cell-based. As to the method:
as §1
as §2, with “atmosphere. […]” for “atmosphere.”
as §3

Molecules are shown by their SMILES.

Sequence of β-FGF (P09038 143-288): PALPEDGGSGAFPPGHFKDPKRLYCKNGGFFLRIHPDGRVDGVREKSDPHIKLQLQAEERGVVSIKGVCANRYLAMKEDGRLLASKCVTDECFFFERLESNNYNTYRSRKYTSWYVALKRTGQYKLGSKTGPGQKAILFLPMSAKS

Turning to `O=C(O)CCCN1C(=O)c2cc3oc(-c4ccc([N+](=O)[O-])cc4)cc3n2C1=S` [Compound 2, 4-[2-(4-nitro-phenyl)-6-oxo-4-thioxo-6H-1-oxa-3b,5-diaza-cyclopenta[a]pentalen-5-yl]-butyric acid], the “dual activity: inhibition of pro-heparanase activation (H60) and of heparanase activity (H53)” value (from here on “dual activity: inhibition”) in assay [1] was “dual activity”. In addition, the IC50 in assay [1] stood at 9000 nM; in assay [2] it was 1000 nM; in assay [3], 1800 nM; in assay [4] it was 1700 nM; in assay [5], 2600 nM.

Turning to `CC(C)(CC(=O)O)CN1C(=O)c2cc3oc(-c4ccc(Cl)cc4)cc3n2C1=S` [Compound 11, 4-[2-(4-chloro-phenyl)-6-oxo-4-thioxo-6H-1-oxa-3b,5-diaza-cyclopenta[a]pentalen-5-yl]-3,3-dimethyl-butyric acid], the “dual activity: inhibition” value in assay [1] was “dual activity”. Moreover, the IC50 in assay [1] stood at 37000 nM; in assay [6] it was 1400 nM; in assay [2] it was 270 nM; in assay [3] it was 1200 nM; in assay [4], 1800 nM; in assay [5] it was 750 nM.

For `CC(C)(CC(=O)N1CCC[C@H]1C(=O)O)CN1C(=O)c2cc3oc(-c4ccc(Cl)cc4)cc3n2C1=S` [Compound 22, 1-{4-[2-(4-Chloro-phenyl)-6-oxo-4-thioxo-6H-1-oxa-3b,5-diaza-cyclopenta[a]pentalen-5-yl]-3,3-dimethyl-butyryl}-pyrrolidine-2-carboxylic acid], in assay [1], the “dual activity: inhibition” value was “dual activity”. Also, the IC50 in assay [1] worked out at 34800 nM; in assay [6], 50 nM; in assay [2], 230 nM; in assay [3], 2400 nM; in assay [7] it was 2000 nM; in assay [4] it was 2800 nM. In addition, the IC50 in assay [5] came out at 22 nM.
